Assay results taken from patent US20050209157A1, “Short bioactive peptides and methods for their use” (priority 2001, published 2005).
No end group written: not given here.

Assays:
[1] = system: human red blood cells (RBC); test: in vitro; type: cell-based; settings: human red blood cells
[2] = system: human leukocyte (WBC) cells; test: Stimulation and proliferation of leukocytes, Alamar Blue; type: cell-based; settings: 48 hours
Protocol: In vitro viability of human leukocyte cells in the presence of different peptides at different concentrations was determined by an Alamar Blue protocol. Alamar Blue (Promega, Madison, Wis.) is an indicator dye, formulated to measure quantitatively the proliferation and cytotoxicity of the cells. The dye consists of an oxidation-reduction (redox) indicator that yields a calorimetric change and a fluorescent signal in response to cellular metabolic activity.
Assay protocol: Blood from a human was drawn and centrifuged at 1500 rpm for 15 minutes at room temperature. The buffy coat cells at the plasma-red blood cell interface were aspirated. Buffy coat cells (mainly lymphocyte cells) were then transferred into 15 ml centrifuge tubes containing 5 ml of RPMI-1640 medium+10% Fetal Bovine Serum (Gibco, Grand Island, N.Y.). Additional medium was added to the tubes to bring the volume up to 10 ml. The buffy coat suspension was then carefully layered on 5 ml of Histopaque (Sigma Chemical Co., St. Louis, Mo.) and centrifuged at 1500 rpm for 30 minutes at room temperature. The interface which is mostly PBMCs (peripheral mononuclear cells) was aspirated and transferred to a 15 ml conical centrifuge tube and, resuspended in 2 ml cold RPMI-1640 and brought up to 15 ml with cold RPMI-1640 medium. Cells were centrifuged at 1500 rpm for 10 minutes. The supernatant was then aspirated and discarded. The cell pellet was re-suspended in 1 ml of cold RPMI 1640 and brought up to 15 ml with RPMI medium. This step was repeated twice, except that in the last step, the cells were resuspended with 1 ml of cold RPMI-1640 medium and cell counts were performed with a hemocytometer according to the Sigma cell culture catalogue.
Pokewood mitogen was used as a control along with positive and negative controls. Negative control cells were killed with 70% methanol. Positive (+) control cells were incubated in RPMI medium (untreated). […] of AlamarBlue was added to the cells, and readings were taken after 24 hours, 48 hours, 72 hours, and 96 hours using a fluorimeter (excitation 544/transmission 590 nm).
Calculations were performed using the following formula. The peptide treated sample and positive control were adjusted for negative control. [formula]
Using the protocol described immediately above, about 100-150 peptides were screened for their stimulatory and/or inhibitory actions upon the growth of human leukocyte (“WBC”) cells as compared to the growth of untreated positive control cells.
The Alamar Blue stain used in the protocol permeates both cell and nuclear membranes, and is metabolized in the mitochondria to cause the change in color. The resulting fluorometric response is therefore a result of total mitochondrial activity caused by cell stimulation and/or mitosis (cell proliferation).

in vitro = settings: human, WI38 normal lung fibroblast cells
[3] = Peptide toxicity WI-38 LD/50, human fibroblast cells

Substance	Peptide toxicity RBC LD/50 [1]	Peptide treated cell activity Percent stimulation relative to control ([2]; 0.1 ug/ml)	Peptide treated cell activity Percent stimulation relative to control ([2]; 1 ug/ml)	Peptide treated cell activity Percent stimulation relative to control ([2]; 10 ug/ml)	Peptide treated cell activity Percent stimulation relative to control ([2]; 100 ug/ml)	Peptide treated cell activity Percent stimulation relative to control ([2]; 500 ug/ml)	CC50 at 24 h (in vitro; [3])	CC50 at 24 h (in vitro)
FAKALAKLAKKLL-NH2 [compound 58]	300	112%	112%	98%	35%	26%	25 µg/mL	–
FAKKFAKKFKKFAKKFAKFAFAF-NH2 [compound 147]	10	100%	94%	83%	22%	20%	–	66 µg/mL
VAKLLAKLAKKLL-NH2 [compound 30]	130	74%	68%	62%	13%	13%	60 µg/mL	–
MPKWKVFKKIEKVGRNIRNGIVKAGPAIAVLGEAKALG-NH2 [compound 5]	>1000	111%	115%	118%	116%	101%	950 µg/mL	–
FALALKALKKLKKALKKAL-NH2 [compound 12]	125	108%	110%	99%	30%	23%	37 µg/mL	–
FAKKLAKLAKKLLAL-NH2 [compound 20]	350	79%	82%	78%	37%	36%	12 µg/mL	–
FALALKALKKLAKKLKKLAKKAL-NH2 [compound 10]	60	117%	104%	99%	27%	27%	24 µg/mL	–
FAKLLAKLAKKLL-NH2 [compound 25]	20	78%	82%	71%	14%	12%	5 µg/mL	–
